Assay [1] deals with pig intestine. The assay is described as follows: in situ ischaemia reperfusion model in pigs, HRP flow in jejunum segments. The conditions noted are these: 5.6 g/l in lumen during ischaemia, pig under full narcosis, caudal jejunum, FIG. 5. In kind it is in vivo. Here is the method: The figure relates to experiments with a pig under full narcosis, in which segments of the caudal section of the jejunum were taken. The effect of 5.6 g/l dextran (70 kD)(D) in the in situ ischaemia reperfusion model in pigs as a function of the duration of ischaemia was determined in comparison with control (C) where no dextran was introduced into the lumen during ischaemia.

Assay [2] deals with duodenum biopsies of a child suffering from microvillus inclusion disease (MVID). The assay is described as follows: Permeability to HRP of duodenal suction biopsies of a microvillus inclusion disease patient in Ussing chamber. Set-up: species or system human. The note with it: after adding 4.2 g/l to luminal compartment. The text has this:
Suction biopsies were taken from the duodenum of a child suffering from microvillus inclusion disease (MVID).

In assay [3] the test system is guinea pig intestinal epithelium. The assay is described as follows: HRP flow over guinea pig intestinal epithelium in Ussing chamber, tight junctions opened by caprate. The note with it: in vitro, FIG. 2. As for the experimental part:
Use was made of a model set-up for determination of the effect of the polysaccharides used.
A test animal, such as a rat or guinea pig, was brought under narcosis. The stomach wall was then opened and a piece of the ileum tied off. The intestinal tissue was removed and stripped of layers of muscle. The preparation thus obtained was then stretched between two compartments through which oxygenated solutions flowed (FIG. 1). The preparation was treated either with buffer (control or blank) or caprate in buffer in order to open the tight junctions (100% permeability) or with the combination of caprate and a certain concentration of polysaccharide in buffer. As a measure of the permeability the transport of HRP (horseradish peroxidase) over the preparation was determined in accordance with known methods.
The in vitro effect of dextran (70 kD) on the increased HRP flow caused by caprate in a guinea pig intestinal epithelium is shown in FIG. 2.

On to dextran [dextran (70 kD)], for which the “HRP flow in the pig intestine increased by ischaemia, compared with control” value in assay [1] was “significant fall”. Further, the “HRP in the paracellular spaces or tight junctions by electron microscopy” value in assay [2] was “No further HRP could be detected”. The “effect on the increased HRP flow caused by caprate” value in assay [3] is given as “inhibition of the effects of caprate”.
